The results in this text go back to patent publication US5244795A, “Processes for preparing cholesterol lowering compounds” (Merck & Co., Inc., priority 1992, dated 1993).

The test system of the test is Aspergillus niger. The test is described as follows: FISP disc diffusion assay. It is filed as cell-based. The arrangement: key to zone quality qualifier: F: clear zone, fuzzy edges; S: slightly hazy zone (some growth observed throughout zone); H: hazy zone (considerable growth observed throughout zone); V: very hazy zone (zone of inhibition is barely discernable); R: zone displays a ring of resistant growth; no qualifier: clear zone throughout, sharp edges. The settings on record: 250 μg/ml in CH2Cl2. The text has this:
The FISP assay employs disc diffusion susceptibility testing methods to generate a spectrum of activity against a panel of representative yeasts, filamentous fungi and bacteria.
The filamentous fungi used in the assay were Penicillium sp. Aspergillus niger, Trichoderma sp., Phoma sp., Trichoderma lignorum, Fusarium oxysporum, Ustilago maydis, Ceratocystis ulmi, Alternaria soloni, Verticillium serrae, Botrytis allii, Scopulariopsis communis, Cephalosporium sp., Cercospora beticola, Rhizomucor miehei, Aspergillus flavus and Aspergillus fumigatus.
For carrying out the assay, seeded assay plates are prepared in the following manner according to the type of assay strain.
Inocula for filamentous fungi are prepared by scraping the surface of stock plates maintained on potato dextrose agar with a moistened sterile dacron swab. The spores and mycelia are then suspended in 10 milliliters of sterile potato dextrose broth and adjusted to 65 percent transmission at 660 nm. […]
Following incubation, the inhibition zones are measured and recorded. […]
FISP data is reported as the diameter (in mm.) of the zone of inhibition of growth in agar diffusion assays. The zone is determined by measuring growth that differs from the background lawn. […]
For orientation: In agar diffusion tests the substance spreads into inoculated agar from a disc or well.

For orientation: zone of inhibition means the size of the clear area around the sample on an inoculated plate. With `CC(/C=C/C=C(\C)C(O)C(C)C(=O)O[C@H]1C[C@H](C)C=C2C=C[C@@]3(C)O[C@@H](O)CC(=O)[C@]3(C)[C@H]21)=C\C=C\C(=O)O` (some centres unmarked) [Compound A], the zone quality qualifier entry is listed as “H”. For the same compound, the zone of inhibition at 250 µg/mL (Aspergillus niger, read-out: diameter of the zone of inhibition of growth) worked out at 0 mm.
